# Target: T1, Jak3 (Homo sapiens, UniProt P52333)
# T1 construct: A fragment encoding the catalytic domain of Jak3 (508aa to 1124aa) was ligated with GST at 5′ end; made in house; host or cells: Sf9 insect cells (baculovirus, pFastBac 1)
# T1 sequence (P52333 508-1124): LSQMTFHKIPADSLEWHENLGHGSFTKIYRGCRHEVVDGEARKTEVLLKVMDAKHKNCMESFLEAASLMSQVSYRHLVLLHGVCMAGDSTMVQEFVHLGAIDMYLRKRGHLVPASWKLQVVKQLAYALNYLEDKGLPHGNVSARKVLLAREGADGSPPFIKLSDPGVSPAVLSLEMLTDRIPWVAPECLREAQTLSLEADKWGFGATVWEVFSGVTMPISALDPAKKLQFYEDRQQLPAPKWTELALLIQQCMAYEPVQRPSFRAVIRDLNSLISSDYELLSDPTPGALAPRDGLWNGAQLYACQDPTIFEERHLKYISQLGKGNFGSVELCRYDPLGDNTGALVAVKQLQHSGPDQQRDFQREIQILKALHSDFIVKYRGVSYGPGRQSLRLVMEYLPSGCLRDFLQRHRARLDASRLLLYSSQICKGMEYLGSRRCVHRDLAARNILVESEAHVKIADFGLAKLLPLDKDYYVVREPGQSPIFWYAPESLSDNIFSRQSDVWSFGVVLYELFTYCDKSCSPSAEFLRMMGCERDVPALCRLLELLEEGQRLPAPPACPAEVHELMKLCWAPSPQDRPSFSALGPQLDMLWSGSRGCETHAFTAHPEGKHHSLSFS
# Assay: Jak3 Kinase Assay (HTRF)
# Type: biochemical
# Conditions: GST-Jak3 catalytic domain, 1 μM ATP, 60-min incubation; read-out: Jak3 Kinase, IC50 representation
# Method: Human Jak3 cDNA was amplified by PCR. A fragment encoding the catalytic domain of Jak3 (508aa to 1124aa) was ligated with GST at 5′ end. This fused GST-Jak3 DNA fragment was cloned into the EcoRI site of the donor plasmid pFastBac 1 (Life Technologies #10359-016). The transformation, transposition, and transfection of insect cells (Sf9) were performed according to the manufacture's instructions. The cell lysate containing recombinant GST-Jak3 was used in the kinase assay. Anti-GST antibody (10 μg/ml, Sigma #G1417) was coated onto a 384-well plate at 4° C. overnight. Cell lysate containing GST-Jak3 (1:100 dilution) was added to the anti-GST coated plates, and GST-Jak3 was captured by immobilized anti-GST antibody. Testing compounds and substrate mix (50 mM HEPES, pH 7, 0.5 mM Na3VO4, 25 mM MgCl2, 1 mM DTT, 0.005% BSA, 1 μM ATP, and 4.5 μg/ml biotinyl poly-Glu,Ala,Tyr) were added to the plate to initiate the reaction. After a 60-min incubation, the reaction was stopped by 4 mM EDTA, and phosphorylation of biotinyl poly-Glu,Ala,Tyr was detected using 17 μg/ml Cy5-streptavidin (Amersham, #PA92005) and 2.7 μg/ml Europium-conjugated anti-phosphotyrosine antibody (PerkinElmer #AD0069) using homogeneous time-resolved fluorescence (HTRF) technology.
row,SMILES,IC50 [nM]
1,N#Cc1ccc2ncn(-c3nc(N4CC(F)(F)C4)c4[nH]c(=O)n(CC5CCOC5)c4n3)c2c1 (centres unmarked),< 100
2,O=c1[nH]c2c(OCC3CC3)nc(-n3cnc4ccc(F)cc43)nc2n1C1CCOCC1,100 to 1000
3,O=c1[nH]c2c(-c3cccnc3)nc(-n3cnc4ccc(F)cc43)nc2n1C1CCOCC1,< 100
4,N#Cc1ccc2ncn(-c3nc(N4CCS(=O)(=O)CC4)c4[nH]c(=O)n(C5CCOCC5)c4n3)c2c1,< 100
5,O=c1[nH]c2c(C3CCC3)nc(-n3cnc4ccc(F)cc43)nc2n1C1CCOCC1,100 to 1000
6,O=c1[nH]c2c(Cc3ccccc3)nc(-n3cnc4ccc(F)cc43)nc2n1[C@@H]1CCOc2c(F)cccc21,100 to 1000
7,COCCNc1nc(-n2cnc3ccc(Cl)cc32)nc2c1[nH]c(=O)n2C1CCOCC1,< 100
8,O=c1[nH]c2c(-c3cncnc3)nc(-n3cnc4ccc(F)cc43)nc2n1C1CCOCC1,< 100
9,CCOC(=O)c1nc(-n2cnc3ccc(F)cc32)nc2c1[nH]c(=O)n2C1CCOc2ccccc21 (centres unmarked),100 to 1000
10,O=C(O)c1nc(-n2cnc3ccc(F)cc32)nc2c1[nH]c(=O)n2C1CCOCC1,100 to 1000
11,O=c1[nH]c2c(CO)nc(-n3cnc4ccc(F)cc43)nc2n1C1CCOCC1,100 to 1000
12,Cc1ncccc1Cn1c(=O)[nH]c2c(N3CC(F)(F)C3)nc(-n3cnc4ccc(C#N)cc43)nc21,< 100
13,CCOC(=O)CCc1nc(-n2cnc3ccc(F)cc32)nc2c1[nH]c(=O)n2[C@@H]1CCOc2c(F)cccc21,100 to 1000
14,CCOC(=O)c1nc(-n2cnc3ccc(F)cc32)nc2c1[nH]c(=O)n2C1CCOCC1,100 to 1000
15,Cn1c(=O)n([C@H]2CC[C@H](O)CC2)c2nc(-n3cnc4ccc(F)cc43)nc(N3CCCCC3)c21,< 100
16,O=c1[nH]c2c(CO)nc(-n3cnc4ccc(F)cc43)nc2n1C1CCOc2ccccc21 (centres unmarked),< 100
17,Cn1c(=O)n([C@H]2CC[C@H](O)CC2)c2nc(-n3cnc4ccc(F)cc43)nc(N3CCC3)c21,< 100
18,O=c1[nH]c2c(N3CC[C@H](F)C3)nc(-n3cnc4ccc(F)cc43)nc2n1C1CCOCC1,< 100
19,O=c1[nH]c2c(-c3ccccc3)nc(-n3cnc4ccc(F)cc43)nc2n1C1CCOCC1,< 100
20,CCCCc1nc(-n2cnc3ccc(F)cc32)nc2c1[nH]c(=O)n2[C@@H]1CCOc2c(F)cccc21,> 1000
21,C[C@H](Nc1nc(-n2cnc3ccc(F)cc32)nc2c1[nH]c(=O)n2C1CCOCC1)c1ccccc1,100 to 1000

# Now from value to molecule:
row,IC50 [nM],SMILES
1,< 100,Cn1c(=O)n([C@H]2CC[C@H](O)CC2)c2nc(-n3cnc4ccc(Cl)cc43)nc(N3CC(F)(F)C3)c21
2,< 100,O=c1[nH]c2c(N3CC(O)C3)nc(-n3cnc4ccc(F)cc43)nc2n1[C@@H]1CCOc2c(F)cccc21
3,< 100,NC(=O)C1CCN(c2nc(-n3cnc4ccc(Cl)cc43)nc3c2[nH]c(=O)n3C2CCOCC2)CC1
4,< 100,Cn1c(=O)n([C@H]2CC[C@H](O)CC2)c2nc(-n3cnc4ccc(F)cc43)nc(N3CCCC3)c21
5,> 1000,C[C@@H](Nc1nc(-n2cnc3ccc(F)cc32)nc2c1[nH]c(=O)n2C1CCOCC1)c1ccccc1
6,< 100,Cn1c(=O)n([C@H]2CC[C@H](O)CC2)c2nc(-n3cnc4ccc(Cl)cc43)nc(N3CCC(F)CC3)c21
7,< 100,O=c1[nH]c2c(-c3ccc(F)nc3)nc(-n3cnc4ccc(F)cc43)nc2n1C1CCOCC1
8,< 100,N#Cc1ccc2ncn(-c3nc(N4CC(C(=O)O)C4)c4[nH]c(=O)n(C5CCOCC5)c4n3)c2c1
9,< 100,O=c1[nH]c2c(N[C@@H]3CCC[C@@H]3O)nc(-n3cnc4ccc(F)cc43)nc2n1C1CCOCC1
10,< 100,O=c1[nH]c2c(N3CC[C@@H](F)C3)nc(-n3cnc4ccc(F)cc43)nc2n1C1CCOCC1
11,< 100,N#Cc1ccc2ncn(-c3nc(N4CC(F)(F)C4)c4[nH]c(=O)n(Cc5cccnc5)c4n3)c2c1
12,< 100,O=c1[nH]c2c(NC3CCC3)nc(-n3cnc4ccc(F)cc43)nc2n1C1CCOCC1
13,< 100,CNC(=O)c1nc(-n2cnc3ccc(F)cc32)nc2c1[nH]c(=O)n2C1CCOc2ccccc21 (centres unmarked)
14,< 100,NC(=O)C1CCN(c2nc(-n3cnc4ccc(F)cc43)nc3c2[nH]c(=O)n3C2CCOCC2)CC1

# Source: US7902187B2, “6-substituted 2-(benzimidazolyl)purine and purinone derivatives for immunosuppression” (Wyeth LLC, priority 2006, dated 2011)
